Reference: BindingDB's records for doi:10.1021/bi0500628 (Merck Research Laboratories, 2005)
pIC50: −log10 of the molar value.

Key:
[1] = target: Insulin-like growth factor 1 receptor (Homo sapiens, UniProt P08069); assay: Homogeneous Time-Resolved Fluorescence (HTRF) Assay; settings: pH 7.4; 22 °C
Excerpt: (§1) The assay uses purified enzyme interacting with biotinylated peptide substrate.HTRF is based on the proximity of europium cryptate (donor fluorophore)-labeled antiphosphotyrosine and streptavidin labeled with APC (allophycocyanin), which have been brought together by a binding reaction. When the two entities come into close proximity and upon excitation, energy transfer occurs and APC re-emits at 665 nm. Relative fluorescence units were read on a Discovery plate reader (Packard). The IC50 values for inhibitors were determined by a four-parameter sigmoidal curve fit.

Insulin receptor = Insulin receptor (Homo sapiens, UniProt P06213); assay: as above; settings: pH 7.4; 22 °C
Excerpt: as §1

Insulin receptor, sequence (P06213 28-758 limits assumed): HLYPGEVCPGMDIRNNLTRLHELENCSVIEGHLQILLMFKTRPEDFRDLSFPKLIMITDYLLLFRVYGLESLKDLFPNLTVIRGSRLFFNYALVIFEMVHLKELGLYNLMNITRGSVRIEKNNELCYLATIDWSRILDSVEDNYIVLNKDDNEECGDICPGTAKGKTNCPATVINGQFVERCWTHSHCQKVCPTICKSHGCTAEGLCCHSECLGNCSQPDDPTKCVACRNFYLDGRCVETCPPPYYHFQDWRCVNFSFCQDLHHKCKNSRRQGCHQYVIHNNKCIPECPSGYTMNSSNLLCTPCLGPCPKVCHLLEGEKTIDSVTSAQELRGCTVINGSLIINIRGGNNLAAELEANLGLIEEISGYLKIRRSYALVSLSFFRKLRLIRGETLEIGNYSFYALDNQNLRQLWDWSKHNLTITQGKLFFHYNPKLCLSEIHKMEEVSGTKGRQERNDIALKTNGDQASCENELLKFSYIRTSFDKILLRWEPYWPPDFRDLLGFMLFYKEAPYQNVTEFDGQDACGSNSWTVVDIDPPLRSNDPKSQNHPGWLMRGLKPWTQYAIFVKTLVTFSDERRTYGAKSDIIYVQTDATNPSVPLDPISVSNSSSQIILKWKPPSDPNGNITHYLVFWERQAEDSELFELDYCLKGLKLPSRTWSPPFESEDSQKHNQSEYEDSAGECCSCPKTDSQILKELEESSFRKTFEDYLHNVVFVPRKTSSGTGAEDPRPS
Insulin receptor, sequence (P06213 763-1382 limits assumed): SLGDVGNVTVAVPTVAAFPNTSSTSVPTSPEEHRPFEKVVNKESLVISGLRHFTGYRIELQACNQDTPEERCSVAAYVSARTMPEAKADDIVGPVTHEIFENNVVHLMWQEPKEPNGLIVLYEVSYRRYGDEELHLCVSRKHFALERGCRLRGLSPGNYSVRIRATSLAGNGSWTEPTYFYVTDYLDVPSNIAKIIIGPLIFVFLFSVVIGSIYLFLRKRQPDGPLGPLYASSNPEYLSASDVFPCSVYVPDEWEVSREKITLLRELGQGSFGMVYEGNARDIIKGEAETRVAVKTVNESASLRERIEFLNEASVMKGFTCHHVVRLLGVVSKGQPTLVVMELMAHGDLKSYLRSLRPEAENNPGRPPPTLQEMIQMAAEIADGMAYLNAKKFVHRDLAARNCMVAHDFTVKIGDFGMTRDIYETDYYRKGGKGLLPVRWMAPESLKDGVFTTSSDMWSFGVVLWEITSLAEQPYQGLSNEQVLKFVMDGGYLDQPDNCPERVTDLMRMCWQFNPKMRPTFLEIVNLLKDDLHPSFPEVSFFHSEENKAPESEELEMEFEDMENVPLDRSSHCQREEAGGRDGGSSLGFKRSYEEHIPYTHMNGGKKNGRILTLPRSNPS
Insulin-like growth factor 1 receptor, sequence (P08069 31-736 limits assumed): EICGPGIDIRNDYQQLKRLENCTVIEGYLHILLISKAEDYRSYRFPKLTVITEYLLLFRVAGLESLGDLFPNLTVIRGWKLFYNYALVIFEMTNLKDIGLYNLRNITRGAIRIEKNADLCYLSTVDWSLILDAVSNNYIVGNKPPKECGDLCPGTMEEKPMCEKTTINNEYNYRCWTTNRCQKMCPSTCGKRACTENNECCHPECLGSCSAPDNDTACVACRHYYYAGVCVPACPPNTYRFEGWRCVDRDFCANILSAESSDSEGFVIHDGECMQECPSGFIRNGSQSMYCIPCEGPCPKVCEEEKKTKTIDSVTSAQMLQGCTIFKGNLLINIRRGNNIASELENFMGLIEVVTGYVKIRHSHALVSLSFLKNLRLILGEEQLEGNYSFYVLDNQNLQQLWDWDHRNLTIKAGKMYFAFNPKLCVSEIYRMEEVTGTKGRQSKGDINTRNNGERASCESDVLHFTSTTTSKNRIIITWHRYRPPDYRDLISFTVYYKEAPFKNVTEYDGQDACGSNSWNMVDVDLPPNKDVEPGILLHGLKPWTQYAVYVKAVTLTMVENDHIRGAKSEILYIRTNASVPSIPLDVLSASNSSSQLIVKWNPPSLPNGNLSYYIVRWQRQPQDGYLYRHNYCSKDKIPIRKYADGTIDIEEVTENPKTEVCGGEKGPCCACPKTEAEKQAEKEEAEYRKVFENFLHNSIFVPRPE
Insulin-like growth factor 1 receptor, sequence (P08069 741-1367 limits assumed): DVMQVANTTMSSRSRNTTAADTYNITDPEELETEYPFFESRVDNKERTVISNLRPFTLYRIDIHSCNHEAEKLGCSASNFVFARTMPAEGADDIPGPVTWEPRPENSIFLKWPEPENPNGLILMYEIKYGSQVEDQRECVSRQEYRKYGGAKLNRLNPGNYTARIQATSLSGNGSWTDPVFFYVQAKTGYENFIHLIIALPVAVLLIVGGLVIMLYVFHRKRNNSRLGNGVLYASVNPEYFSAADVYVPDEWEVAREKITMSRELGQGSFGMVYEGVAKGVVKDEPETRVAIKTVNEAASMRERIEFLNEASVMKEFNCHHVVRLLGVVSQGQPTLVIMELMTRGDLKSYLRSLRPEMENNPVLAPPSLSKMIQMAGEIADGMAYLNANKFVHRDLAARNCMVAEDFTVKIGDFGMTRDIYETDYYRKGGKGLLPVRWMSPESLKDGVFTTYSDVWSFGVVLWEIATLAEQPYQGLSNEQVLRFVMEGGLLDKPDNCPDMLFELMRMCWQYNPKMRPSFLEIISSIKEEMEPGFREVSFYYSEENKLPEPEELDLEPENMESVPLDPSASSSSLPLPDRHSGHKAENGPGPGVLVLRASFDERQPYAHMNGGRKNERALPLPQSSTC

Structure (SMILES)	pIC50 [1]	pIC50 (Insulin receptor)
CCOC(=O)c1[nH]c(C=O)c(C(=O)OCC)c1CC [2,4-diethyl 3-ethyl-5-formyl-1H-pyrrole-2,4-dicarboxylate]	5.96	5.27
CCOC(=O)c1[nH]c(CO)c(C(=O)OCC)c1C [2,4-diethyl 5-(hydroxymethyl)-3-methyl-1H-pyrrole-2,4-dicarboxylate]	< 4.00	< 4.00
CCOC(=O)c1[nH]c(C=O)c(C(=O)OCC)c1C [2,4-diethyl 5-formyl-3-methyl-1H-pyrrole-2,4-dicarboxylate]	5.57	4.92
CCOC(=O)c1c(CC)c(C(=O)OC(C)(C)C)n(C)c1C=O [2-tert-Butyl 4-Ethyl 3-Ethyl-5-formyl-1-methyl-1H-pyrrole-2,4-dicarboxylate]	5.37	4.92
CCOC(=O)c1c(C=O)[nH]c(C(=O)OC(C)(C)C)c1CC [2-tert-Butyl 4-Ethyl 3-Ethyl-5-formyl-1H-pyrrole-2,4-dicarboxylate]	6.31	5.70
CCN(CC)C(=O)c1[nH]c(C=O)c(C(=O)N(CC)CC)c1C [N,N,N,N-Tetraethyl-5-formyl-3-methyl-1H-pyrrole-2,4-dicarboxamide]	< 4.00	< 4.00
CCOC(=O)c1c(C=O)[nH]c(C(=O)NC(C)(C)C)c1CC [ethyl 5-(tert-butylcarbamoyl)-4-ethyl-2-formyl-1H-pyrrole-3-carboxylate]	5.59	4.77
COC(=O)[C@]1(O)C[C@@H]2O[C@@]1(C)n1c3ccccc3c3c4c(c5c6ccccc6n2c5c31)C(=O)NC4 [methyl (15R,16S,18S)-16-hydroxy-15-methyl-3-oxo-28-oxa-4,14,19-triazaoctacyclo[12.11.2.1^{15,18}.0^{2,6}.0^{7,27}.0^{8,13}.0^{19,26}.0^{20,25}]octacosa-1(26),2(6),7(27),8(13),9,11,20(25),21,23-nonaene-16-carboxylate]	6.33	6.68
